Experimental data taken from EP3388430A1, “COMPOUND, COMPOUND FOR USE IN THE TREATMENT OF A PATHOLOGICAL CONDITION, A PHARMACEUTICAL COMPOSITION AND A METHOD FOR PREPARING SAID COMPOUND” (Technische Universität München, priority 2017, dated 2018).

How the values were obtained:
[1] = target: T1, EphA2 (Homo sapiens, UniProt P29317); assay: Chemical proteomic affinity matrix competition binding in cell lysate (Kd app, CATDS); settings: CATDS (EphA2) at the concentration corresponding to the Kd app for EphA2; compared with dasatinib
T1 construct: enrichment of ATP-pocket containing proteins (mainly kinases) from complex native cell lysates; endogenous in cells; host or cells: native cell lysate
T1 sequence (P29317 24-976): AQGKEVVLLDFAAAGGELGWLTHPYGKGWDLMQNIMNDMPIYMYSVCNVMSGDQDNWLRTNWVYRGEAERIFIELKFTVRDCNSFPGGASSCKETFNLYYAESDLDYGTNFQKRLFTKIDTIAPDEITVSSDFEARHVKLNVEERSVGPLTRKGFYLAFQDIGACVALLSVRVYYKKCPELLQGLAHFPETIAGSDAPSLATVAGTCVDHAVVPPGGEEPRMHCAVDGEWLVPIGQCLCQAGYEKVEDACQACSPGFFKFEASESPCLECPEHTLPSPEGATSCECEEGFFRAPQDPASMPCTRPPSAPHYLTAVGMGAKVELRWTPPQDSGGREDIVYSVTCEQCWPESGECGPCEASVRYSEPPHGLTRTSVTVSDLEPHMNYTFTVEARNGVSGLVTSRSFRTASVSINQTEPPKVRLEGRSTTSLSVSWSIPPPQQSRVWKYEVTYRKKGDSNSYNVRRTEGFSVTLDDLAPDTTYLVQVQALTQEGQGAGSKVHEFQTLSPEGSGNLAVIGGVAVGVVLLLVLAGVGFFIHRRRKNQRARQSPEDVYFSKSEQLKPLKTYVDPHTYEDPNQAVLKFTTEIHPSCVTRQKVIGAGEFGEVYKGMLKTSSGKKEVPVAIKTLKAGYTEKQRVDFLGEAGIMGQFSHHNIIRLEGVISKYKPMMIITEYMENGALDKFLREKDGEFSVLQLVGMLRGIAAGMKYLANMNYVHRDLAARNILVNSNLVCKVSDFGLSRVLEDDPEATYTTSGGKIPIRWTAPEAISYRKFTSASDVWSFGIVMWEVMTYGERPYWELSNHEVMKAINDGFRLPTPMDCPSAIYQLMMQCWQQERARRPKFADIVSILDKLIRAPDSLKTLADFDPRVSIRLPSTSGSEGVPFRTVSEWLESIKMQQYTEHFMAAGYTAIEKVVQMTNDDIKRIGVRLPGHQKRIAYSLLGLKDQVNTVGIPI
Description: Several of the compounds according to the invention were further evaluated by a chemical proteomic approach facilitating the identification and quantification of drug-protein interactions. This technology utilizes an affinity matrix comprising five immobilized broad spectrum kinase inhibitors for enrichment of ATP-pocket containing proteins (mainly kinases) from complex native cell lysates as described in Bantscheff et al, Nat Biotechnol., 2007, 25(9):1035-44 and Médard et al, L Proteome Res., 2015, 14(3):1574-86. Coupled to quantitative mass spectrometry readout, this chemical proteomic approach allows for the simultaneous identification and quantification of about 300 native human protein kinases. […]
The compounds according to the invention were tested in nine different concentrations (including a DMSO control) ranging from 3 nM to 30 µM. […] Compound selectivity was determined by calculation of a selectivity score named CATDS (concentration and target dependent selectivity). […] It is calculated by dividing the target binding of the target protein (in this case EphA2) by the sum of all target bindings (including the target protein of interest, in this case EphA2) at a particular concentration (in this case the concentration corresponding to the Kd^app value of a compound for EphA2). […]

[2] = tested on: SF-268 cells; assay: SF-268 cell viability, resazurin-based assay; settings: Homo sapiens, SF-268, 72 h; three days of treatment; three biological and three technical replicates, Fig. 8; read-out: cellular potency (EC50), SF-268 cell viability
Procedure: The dependency of viability of SF-268 cells on EphA2 expression was validated by siRNA knockdown experiments. SF-268 cells were treated with four siRNAs targeting EphA2 expression independently and a mixture of the four siRNAs. Experiments were performed in three biological and three technical replicates. Cell death siRNA and scrambled siRNA were used as positive and negative controls. After six days of treatment, cellular viability was determined by a resazurin-based assay system measuring the reduction of resazurin as a function of metabolic activity.
Cellular potency was determined as EC50 value after three days of treatment using the above mentioned resazurin-based assay system in three biological and three technical replicates.

SMILES	selectivity for EphA2 binding (CATDS) [1]	EC50 [2] [nM]
Cc1cccc(Cl)c1NC(=O)c1cnc(Nc2cccc(C(=O)NC3CCNCC3(F)F)c2)s1 (stereo not shown) [Compound 28, N-(2-chloro-6-methylphenyl)-2-((3-((3,3-difluoropiperidin-4-yl)carbamoyl)phenyl)amino)thiazole-5-carboxamide]	improved selectivity	
Cc1cccc(Cl)c1NC(=O)c1cnc(Nc2cc(N3CCOCC3)cc(N3CCOCC3)c2)s1 [Compound 40, N-(2-chloro-6-methylphenyl)-2-((3,5-dimorpholinophenyl)amino)thiazole-5-carboxamide]	improved selectivity	94
Cc1cccc(Cl)c1NC(=O)c1cnc(Nc2cc(N3CCOCC3)cc(S(C)(=O)=O)c2)s1 [Compound 41, N-(2-chloro-6-methylphenyl)-2-((3-(methylsulfonyl)-5-morpholinophenyl)amino)thiazole-5-carboxamide]		504
